One test addresses BTK(C481S) (Homo sapiens (Human), UniProt Q06187, C481S). Kind of test: In vitro inhibitory activity against BTK(C481S) enzyme (33P-ATP filter binding). The class given is biochemical. To be noted: class symbols; read-out: IC50 BTK(C48IS). The protocol:
(§1) The substrate solution was prepared by adding the substrate poly(Glu, Tyr) sodium salt (Sigma Aldrich, St. Louis, Mo.) to the substrate reaction buffer (20 mM Hepes (pH 7.5), 10 mM MgCl2, 1 mM EGTA, 0.02% Brij35, 0.02 mg/mL BSA, 0.1 mM Na3VO4, 2 mM DTT and 1% DMSO) (final substrate concentration in the reaction solution was 0.2 μM). Test compound was formulated into stock solutions at 10 mM concentration with 100% DMSO, and 3-fold serial dilution for 10 doses was performed in a 384-well cyclic olefin copolymer LDV microplate. […] Test compound in 100% DMSO was then added to the kinase reaction mixture by acoustic liquid transfer technology (Echo 550; nanoliter range) (Labcyte Inc, Sunnyvale, Calif.) and incubated for 20 min at room temperature. 33P-ATP (specific activity 10 μCi/μL) was added to the reaction mixture to initiate the reaction, followed by incubation at room temperature for 2 h. A small portion of the reaction mixture was dropped onto P-81 ion exchange filter paper (Whatman). After washing the unbound phosphate from the filter paper with 0.75% phosphate buffer (three times) and drying, the remaining radioactivity on the filter paper was measured. The kinase activity was expressed as the percentage of the remaining kinase activity in the test sample to the kinase activity in the vehicle (dimethyl sulfoxide) blank control. IC50 values were calculated by curve fitting the data obtained using Prism (GraphPad Software).

The target of a further test is BTK(wt) (Homo sapiens (Human), UniProt Q06187). Nature of the test: In vitro inhibitory activity against BTK(wt) enzyme (33P-ATP filter binding). Type of test: biochemical. The settings on record: class symbols. The protocol:
as §1

Sequence of BTK(wt) (Q06187 whole entry): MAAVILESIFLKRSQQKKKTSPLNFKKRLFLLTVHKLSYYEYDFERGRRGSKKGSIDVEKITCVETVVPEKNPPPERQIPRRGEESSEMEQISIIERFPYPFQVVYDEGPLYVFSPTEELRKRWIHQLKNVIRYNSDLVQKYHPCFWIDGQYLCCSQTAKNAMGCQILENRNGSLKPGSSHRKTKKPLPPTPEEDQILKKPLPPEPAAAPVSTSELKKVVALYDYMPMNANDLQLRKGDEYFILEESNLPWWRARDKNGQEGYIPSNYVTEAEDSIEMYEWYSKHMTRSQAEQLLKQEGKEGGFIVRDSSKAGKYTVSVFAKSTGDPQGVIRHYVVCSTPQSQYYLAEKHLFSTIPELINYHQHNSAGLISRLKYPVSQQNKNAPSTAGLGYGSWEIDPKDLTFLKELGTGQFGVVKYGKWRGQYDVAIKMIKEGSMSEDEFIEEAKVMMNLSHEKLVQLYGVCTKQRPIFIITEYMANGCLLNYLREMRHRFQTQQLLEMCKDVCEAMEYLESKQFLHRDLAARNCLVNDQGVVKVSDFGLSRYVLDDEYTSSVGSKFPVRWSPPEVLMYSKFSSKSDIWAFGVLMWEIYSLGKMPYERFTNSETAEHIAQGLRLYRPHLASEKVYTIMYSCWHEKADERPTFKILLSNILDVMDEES
Sequence of BTK(C481S) (Q06187 whole entry C481S): as the sequence (Q06187 whole entry) above, with C481S counted along it

On to `CC#CC(=O)NC12CCC(c3nc(-c4ccc(C(=O)Nc5cc(F)ccn5)cc4)c4c(N)nccn34)(CC1)C2` [Compound A-7-2, 4-(8-amino-3-(4-(but-2-ynamido)bicyclo[2.2.1]heptan-1-yl)imidazo[1,5-a]pyrazin-1-yl)-N-(4-fluoropyridin-2-yl)benzamide], for which the IC50 on BTK(C481S) was 0.1 to 1 nM; at BTK(wt), 1 to 10 nM.
Taken in the same sequence, the figures for `Nc1ncnc2c1n(-c1ccc(C(=O)Nc3cc(C(F)(F)F)ccn3)cc1)c(=O)n2C12CCC(NC(=O)CN3CCOCC3)(CC1)C2` [Compound C-7-2, 4-(6-amino-9-(4-(2-morpholinoacetamido)bicyclo[2.2.1]heptan-1-yl)-8-oxo-8,9-dihydro-7H-purin-7-yl)-N-(4-(trifluoromethyl)pyridin-2-yl)benzamide] were 0.1 to 1 nM and 1 to 10 nM.
Taken in the same sequence, the figures for `N#CC1(C(=O)NC23CCC(c4nc(-c5ccc(C(=O)Nc6cc(C(F)(F)F)ccn6)cc5)c5c(N)nccn45)(CC2)C3)CC1` [Compound A-10-12, 4-(8-amino-3-(4-(1-cyanocyclopropanecarboxamido)bicyclo[2.2.1]heptan-1-yl)imidazo[1,5-a]pyrazin-1-yl)-N-(4-(trifluoromethyl)pyridin-2-yl)benzamide] were 0.1 to 1 nM and 1 to 10 nM.
Taken in the same sequence, the figures for `Nc1ncnc2c1c(-c1ccc(C(=O)Nc3cc(C(F)(F)F)ccn3)cc1)cn2C12CCC(NC(=O)CN3CCOCC3)(CC1)C2` [Compound B-6-5, 4-(4-amino-7-(4-(2-morpholinoacetamido)bicyclo[2.2.1]heptan-1-yl)-7H-pyrrolo[2,3-d]pyrimidin-5-yl)-N-(4-(trifluoromethyl)pyridin-2-yl)benzamide] were 1 to 10 nM and 1 to 10 nM.
`COCCC(=O)NC12CCC(c3nc(-c4ccc(CNC(=O)c5cc(F)ccc5OC)cc4)c4c(N)nccn34)(CC1)C2` [Compound A-16-2, N-(4-(8-amino-3-(4-(3-methoxypropanamido)bicyclo[2.2.1]heptan-1-yl)imidazo[1,5-a]pyrazin-1-yl)benzyl)-5-fluoro-2-methoxybenzamide]: the IC50 on BTK(C481S) and on BTK(wt) was 1 to 10 nM throughout.
`Nc1nccn2c(C34CCC(NC(=O)c5nccs5)(CC3)C4)nc(-c3ccc(C(=O)Nc4cc(C(F)(F)F)ccn4)cc3)c12` [Compound A-10-22, N-(4-(8-amino-1-(4-((4-(trifluoromethyl)pyridin-2-yl)carbamoyl)phenyl)imidazo[1,5-a]pyrazin-3-yl)bicyclo[2.2.1]heptan-1-yl)thiazole-2-carboxamide]: the IC50 at BTK(C481S) and on BTK(wt) was 1 to 10 nM throughout.
For the compound `CC#CC(=O)NC12CCC(c3nc(-c4ccc(C(=O)Nc5cc(C(F)(F)F)ccn5)cc4)c4c(N)nccn34)(CC1)C2` [Compound A-7-3, 4-(8-amino-3-(4-(but-2-ynamido)bicyclo[2.2.1]heptan-1-yl)imidazo[1,5-a]pyrazin-1-yl)-N-(4-(trifluoromethyl)pyridin-2-yl)benzamide], the half-maximal inhibitory concentration (IC50) at BTK(C481S) and on BTK(wt) was 0.1 to 1 nM each time.
For the compound `CC1(C(=O)NC23CCC(c4nc(-c5ccc(Oc6ccccc6)cc5)c5c(N)nccn45)(CC2)C3)COC1` [Compound A-13-3, N-(4-(8-amino-1-(4-phenoxyphenyl)imidazo[1,5-a]pyrazin-3-yl)bicyclo[2.2.1]heptan-1-yl)-3-methyloxetane-3-carboxamide], the IC50 on BTK(C481S) and at BTK(wt) was 1 to 10 nM each time.
As for `CC#CC(=O)NC12CCC(n3cc(-c4ccc(C(=O)Nc5cc(C(F)(F)F)ccn5)cc4)c4c(N)ncnc43)(CC1)C2` [Compound B-6-1, 4-(4-amino-7-(4-(but-2-ynamido)bicyclo[2.2.1]heptan-1-yl)-7H-pyrrolo[2,3-d]pyrimidin-5-yl)-N-(4-(trifluoromethyl)pyridin-2-yl)benzamide], the IC50 at BTK(C481S) and at BTK(wt) was 1 to 10 nM in each case.

For orientation: IC50 means the point on the concentration scale where inhibition reaches its midpoint.
